Results published in patent publication US9249116B2, “Enzyme-activating compounds and compositions” (The Board of Trustees of the University of Illinois, priority 2012, dated 2016).
Like-named read-outs stand apart in the source and are kept apart here.

Key:
[1] = tested on: U-937 cells (human lymphoma); test: 72 Hour IC50 cell death assay (sulforhodamine B); format: cell-based
Experimental: After the synthesis was complete, the biological activity of the compounds was evaluated.
U-937 human lymphoma cells were plated into the wells of 96 well plate at a density of 15,000 cells per well in 99 μL of RPMI 1640 growth media with 10% FBS and 1% pen-strep. To each well was added 1 μL of compound stock solutions in DMSO at varying concentrations such that the cells were treated with concentrations between 0 μM and 100 μM compound. Each concentration was tested in quintuplicate per plate. In each plate 5 wells received 20 μM doxorubicin as a positive death control and 5 wells received 1 μL of DMSO as a negative control.
After the 72 hour incubation period, the plates were analyzed using a Sulforhodamine B assay (Vichai and Kirtikara, Nat Protoc 2006, 1, 1112-1116). Specifically, to each well of the plate 25 μL of a 50% (w/v) solution of trichloroacetic acid in H2O was added and the plates were incubated for 4 hours at 4° C. The plates were then washed gently with water five times. The plates were allowed to air dry after which 100 μL of a 0.057% (w/v) Sulforhodamine B in a 1% (v/v) acetic acid solution was added to each well for 30 minutes at room temperature. The plates were gently washed 5 times with 1% (v/v) acetic acid and air dried. 200 μL of 10 mM Tris base (pH 10.4) was added to each well and the plates were placed on an orbital shaker for thirty minutes. The level of SRB was quantified fluorometrically at excitation and emission wavelengths 488 and 585 nm, respectively, on a Molecular Devices plate reader and the percent cell death calculated and normalized to the positive control (100% cell death) and the negative control (0% cell death). The percent cell death was averaged for each compound concentration and plotted as a function of compound concentration. The data were fit to a logistical dose response curve using Table curve 2D and the IC50 value was calculated. The experiment was repeated three times and the average of the calculated IC50 values was reported. The standard error of the mean (SEM) was determined and reported for the triplicate experiments.

mice = test: Assessment of toxicity in vivo; settings: mice; scale 0 to 3, or time of death
From the text: The level of toxicity was rated on a scale of 0 (no observable adverse effect) to 3 (severe toxicity, almost fatal).

[2] = Liver microsome stability assay; format: in vitro ADME; settings: rat liver microsomes, 10 μM, LC/MS
Experimental: FIG. 4. Liver Microsome Stability Assay. Compounds (10 μM) incubated with liver microsomes for 3 h and quenched with MeCN containing internal standard, analyzed by LC/MS (280 nm). Next, the metabolic stability of the compounds was evaluated in rat liver microsomes. The compounds were evaluated for 3 hours at 10 μM, and the metabolites were observed by LC/MS.

[3] = read-out: U-937 72 h IC50 (μM), Table 1, U-937 cells, 72 h

| Structure (SMILES) | IC50 [1, 3] | Mouse Toxicity (mice) | RLM 3 h % Stability [2] | IC50 ([1]; U-937, 72 h, read-out: U-937 72 h IC50 (μM)) |
| --- | --- | --- | --- | --- |
| C=CCc1cccc(/C=N/NC(=O)CN2CCN(C(=O)c3ccccc3)CC2)c1O [Compound 3, N′-(3-allyl-2-hydroxybenzylidene)-2-(4-benzoylpiperazin-1-yl)acetohydrazide] | 12.1 ± 1.3 µM | 3 | 89 ± 4% |  |
| C=CCc1cccc(/C=N/NC(=O)CN2CCN(Cc3ccc(C#N)cc3)CC2)c1O [Compound 4, N′-(3-allyl-2-hydroxybenzylidene)-2-(4-(4-cyanobenzyl)piperazin-1-yl)acetohydrazide] | 13.7 ± 0.9 µM | 1 | 48 ± 2% |  |
| C=CCc1cccc(/C=N/NC(=O)CN2CCN(C(=O)c3ccc(C#N)cc3)CC2)c1O [Compound 5, N′-(3-allyl-2-hydroxybenzylidene)-2-(4-(4-cyanobenzoyl)piperazin-1-yl)acetohydrazide] | 13.1 ± 3.7 µM | death >72 h (greater than 72 hours post-treatment) | 90 ± 4% |  |
| C=CCc1cccc(/C=N/NC(=O)CN2CCN(Cc3ccc(F)cc3)CC2)c1O [Compound 6, N′-(3-allyl-2-hydroxybenzylidene)-2-(4-(4-fluorobenzyl)piperazin-1-yl)acetohydrazide] | 11.1 ± 2.1 µM | 3 | 31 ± 1% |  |
| C=CCc1cccc(/C=N/NC(=O)CN2CCN(C(=O)c3ccc(F)cc3)CC2)c1O [Compound 7, N′-(3-allyl-2-hydroxybenzylidene)-2-(4-(4-fluorobenzoyl)piperazin-1-yl)acetohydrazide] | 10.2 ± 1.7 µM | 2 | 86 ± 2% |  |
| CCCc1cccc(/C=N/NC(=O)CN2CCN(Cc3ccccc3)CC2)c1O [Compound 10, 2-(4-benzylpiperazin-1-yl)-N′-(2-hydroxy-3-propylbenzylidene)acetohydrazide] | 9.6 ± 2.1 µM | 2 | 30 ± 1% |  |
| CCCc1cccc(/C=N/NC(=O)CN2CCN(C(=O)c3ccccc3)CC2)c1O [Compound 12, 2-(4-benzoylpiperazin-1-yl)-N′-(2-hydroxy-3-propylbenzylidene)acetohydrazide] | 9.4 ± 1.3 µM |  | 71 ± 3% |  |
| CCCc1cccc(/C=N/NC(=O)CN2CCN(Cc3ccc(C#N)cc3)CC2)c1O [Compound 13, 2-(4-(4-cyanobenzyl)piperazin-1-yl)-N′-(2-hydroxy-3-propylbenzylidene)acetohydrazide] | 9 ± 1.2 µM |  | 30 ± 2% |  |
| CCCc1cccc(/C=N/NC(=O)CN2CCN(C(=O)c3ccc(C#N)cc3)CC2)c1O [Compound 14, 2-(4-(4-cyanobenzoyl)piperazin-1-yl)-N′-(2-hydroxy-3-propylbenzylidene)acetohydrazide] | 12.8 ± 2.7 µM |  | 61 ± 3% |  |
| CCCc1cccc(/C=N/NC(=O)CN2CCN(Cc3ccc(F)cc3)CC2)c1O [Compound 15, 2-(4-(4-fluorobenzyl)piperazin-1-yl)-N′-(2-hydroxy-3-propylbenzylidene)acetohydrazide] | 10 ± 1.7 µM | death <24 h (the mice died either within 24 hours of treatment) | 24 ± 2% |  |
| CCCc1cccc(/C=N/NC(=O)CN2CCN(C(=O)c3ccc(F)cc3)CC2)c1O [Compound 16, 2-(4-(4-fluorobenzoyl)piperazin-1-yl)-N′-(2-hydroxy-3-propylbenzylidene)acetohydrazide] | 7.3 ± 0.9 µM |  | 69 ± 4% |  |
| O=C(CN1CCN(Cc2ccccc2)CC1)N/N=C/c1cc(F)ccc1O [Compound 19, 2-(4-benzylpiperazin-1-yl)-N′-(5-fluoro-2-hydroxybenzylidene)acetohydrazide] | 17 ± 1.4 µM | 3 | 64 ± 4% |  |
| NS(=O)(=O)c1ccc(CN2CCN(CC(=O)N/N=C/c3cc(F)ccc3O)CC2)cc1 [Compound 20, 4-((4-(2-(2-(5-fluoro-2-hydroxybenzylidene)hydrazinyl)-2-oxoethyl)piperazin-1-yl)methyl)benzenesulfonamide] | 19.6 ± 3.8 µM | death >72 h (greater than 72 hours post-treatment) | 85 ± 6% |  |
| O=C(CN1CCN(C(=O)c2ccccc2)CC1)N/N=C/c1cc(F)ccc1O [Compound 21, 2-(4-benzoylpiperazin-1-yl)-N′-(5-fluoro-2-hydroxybenzylidene)acetohydrazide] | 15.7 ± 2.6 µM |  | 88 ± 1% |  |
| N#Cc1ccc(CN2CCN(CC(=O)N/N=C/c3cc(F)ccc3O)CC2)cc1 [Compound 22, 2-(4-(4-cyanobenzyl)piperazin-1-yl)-N′-(5-fluoro-2-hydroxybenzylidene)acetohydrazide] | 13.5 ± 1 µM | death <24 h (the mice died either within 24 hours of treatment) | 79 ± 4% |  |
| N#Cc1ccc(C(=O)N2CCN(CC(=O)N/N=C/c3cc(F)ccc3O)CC2)cc1 [Compound 23, 2-(4-(4-cyanobenzoyl)piperazin-1-yl)-N′-(5-fluoro-2-hydroxybenzylidene)acetohydrazide] |  |  | 88 ± 4% | 15.3 ± 1.3 µM |
| O=C(CN1CCN(Cc2ccc(F)cc2)CC1)N/N=C/c1cc(F)ccc1O [Compound 24, N′-(5-fluoro-2-hydroxybenzylidene)-2-(4-(4-fluorobenzyl)piperazin-1-yl)acetohydrazide] | 11.7 ± 1.4 µM | 3 | 62 ± 2% |  |
| O=C(CN1CCN(C(=O)c2ccc(F)cc2)CC1)N/N=C/c1cc(F)ccc1O [Compound 25, N′-(5-fluoro-2-hydroxybenzylidene)-2-(4-(4-fluorobenzoyl)piperazin-1-yl)acetohydrazide] | 15.3 ± 0.8 µM |  | 86 ± 2% |  |
| O=C(CN1CCN(Cc2ccc(C(F)(F)F)cc2)CC1)N/N=C/c1cc(F)ccc1O [Compound 26, N′-(5-fluoro-2-hydroxybenzylidene)-2-(4-(4-(trifluoromethyl)benzyl)piperazin-1-yl)acetohydrazide] | 4.7 ± 0.3 µM | 3 | 30 ± 5% |  |
| O=C(CN1CCN(C(=O)c2ccc(C(F)(F)F)cc2)CC1)N/N=C/c1cc(F)ccc1O [Compound 27, N′-(5-fluoro-2-hydroxybenzylidene)-2-(4-(4-(trifluoromethyl)benzoyl)piperazin-1-yl)acetohydrazide] | 8.7 ± 0.5 µM | 2 | 87 ± 3% |  |
| C=CCc1cc(F)cc(/C=N/NC(=O)CN2CCN(Cc3ccc(C#N)cc3)CC2)c1O [Compound 31, N′-(3-allyl-5-fluoro-2-hydroxybenzylidene)-2-(4-(4-cyanobenzyl)piperazin-1-yl)acetohydrazide] | 12.7 ± 2 µM |  | 65 ± 2% |  |
| C=CCc1cc(F)cc(/C=N/NC(=O)CN2CCN(Cc3ccc(F)cc3)CC2)c1O [Compound 33, N′-(3-allyl-5-fluoro-2-hydroxybenzylidene)-2-(4-(4-fluorobenzyl)piperazin-1-yl)acetohydrazide] | 10.3 ± 4.1 µM |  | 57 ± 1% |  |
| CCCc1cc(F)cc(/C=N/NC(=O)CN2CCN(Cc3ccc(C#N)cc3)CC2)c1O [Compound 40, 2-(4-(4-cyanobenzyl)piperazin-1-yl)-N′-(5-fluoro-2-hydroxy-3-propylbenzylidene)acetohydrazide] | 11.2 ± 0.9 µM |  | 49 ± 5% |  |
| CCCc1cc(F)cc(/C=N/NC(=O)CN2CCN(Cc3ccc(F)cc3)CC2)c1O [Compound 42, N′-(5-fluoro-2-hydroxy-3-propylbenzylidene)-2-(4-(4-fluorobenzyl)piperazin-1-yl)acetohydrazide] | 7.5 ± 0.7 µM |  | 48 ± 1% |  |
